Experimental findings from PubChem BioAssay AID328 (DTP/NCI, 2004) are described below.

Where “and” joins values, the source holds several entries; their conditions need not be identical. Equal values may be shown once. Inconclusive results and toxic doses are left out. Residues, ends and D or L forms follow the SMILES beside them.

The assay has as its system BDF1 mice, P388 leukemia ip, median survival T/C. Nature of the assay: NCI In Vivo Anticancer Drug Screen. Data for tumor model P388 Leukemia (intraperitoneal) in B6D2F1 (BDF1) mice. Conditions: endpoint: median survival time, higher = longer survival. The method, boiled down: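 Vehicle-dosed animals serve as the reference; survival of compound-dosed, tumour-implanted mice is divided by it.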

The mark [1] stands for this setting: dose: 50.0 mg/kg/injection, schedule: Q01DX005 (ip), vehicle: saline.
Setting [2] is: dose: 100.0 mg/kg/injection, schedule: Q01DX005 (ip), vehicle: saline.
Setting [3] is: dose: 200.0 mg/kg/injection, schedule: Q01DX005 (ip), vehicle: saline.
Where [4] appears, read: dose: 25.0 mg/kg/injection, schedule: Q01DX009 (ip), vehicle: Klucel (hydroxypropylcellulose) (HPC).
Setting [5] is: dose: 50.0 mg/kg/injection, schedule: Q01DX009 (ip), vehicle: Klucel (hydroxypropylcellulose) (HPC).
[6] abbreviates: dose: 100.0 mg/kg/injection, schedule: Q01DX009 (ip), vehicle: Klucel (hydroxypropylcellulose) (HPC).
Where [7] appears, read: dose: 100.0 mg/kg/injection, schedule: Q04DX003 (ip), vehicle: saline with Tween-80.
[8] abbreviates: dose: 200.0 mg/kg/injection, schedule: Q04DX003 (ip), vehicle: saline with Tween-80.
The mark [9] stands for this setting: dose: 400.0 mg/kg/injection, schedule: Q04DX003 (ip), vehicle: saline with Tween-80.
[10] abbreviates: dose: 100.0 mg/kg/injection, schedule: Q01DX009 (ip), vehicle: saline with Tween-80.
The mark [11] stands for this setting: dose: 200.0 mg/kg/injection, schedule: Q01DX009 (ip), vehicle: saline with Tween-80.
[12] abbreviates: dose: 400.0 mg/kg/injection, schedule: Q01DX009 (ip), vehicle: saline with Tween-80.
The mark [13] stands for this setting: dose: 50.0 mg/kg/injection, schedule: Q01DX009 (ip), vehicle: saline with Tween-80.

On to `CC12CCC(C=C1N1CCOCC1)C(C)(C)O2` (stereo not given), for which the T/C is, setting by setting: under setting [1], 114 % of control; under setting [2], 122 % of control; under setting [3], 111 % of control.
As for `OCC1(c2ccccc2)CCN(Cc2ccccc2)CC1`, the T/C runs as follows: under setting [4], 107 % of control; under setting [5], 107 % of control; under setting [6], 87 % of control; (dose: 100.0 mg/kg/injection, schedule: Q04DX003 (ip), vehicle: Klucel (hydroxypropylcellulose) (HPC)) 91 % of control; (dose: 200.0 mg/kg/injection, schedule: Q04DX003 (ip), vehicle: Klucel (hydroxypropylcellulose) (HPC)) 87 % of control.
`COC(=O)C1(C)CCc2c(ccc3ccccc23)C1=O` (stereo not given): the T/C is 100 % of control (dose: 100.0 mg/kg/injection, schedule: Q01DX001 (ip), vehicle: other); 95 % of control (dose: 200.0 mg/kg/injection, schedule: Q01DX001 (ip), vehicle: other); 113 % of control (dose: 400.0 mg/kg/injection, schedule: Q01DX001 (ip), vehicle: other).
On to `CCN1C=NNc2ccc(Cl)cc2C1=O`, for which the T/C by setting is: under setting [7], 97 % of control; under setting [8], 97 % of control; under setting [9], 100 % of control.
Take `COc1cccc2c1C(=O)c1c(O)c3c(c(O)c1C2=O)C[C@@](O)(/C(C)=N\NC(=O)CO)C[C@@H]3OC1CC(N)C(O)C(C)O1` (stereo not given in full): the T/C (dose: 0.27 mg/kg/injection, schedule: Q01DX009 (ip), vehicle: saline) is 172 % of control; the T/C (dose: 0.4 mg/kg/injection, schedule: Q01DX009 (ip), vehicle: saline) is 183 % of control; the T/C (dose: 0.6 mg/kg/injection, schedule: Q01DX009 (ip), vehicle: saline) was 190 % of control; the T/C (dose: 0.9 mg/kg/injection, schedule: Q01DX009 (ip), vehicle: saline) was 186 % of control; the T/C (dose: 1.87 mg/kg/injection, schedule: Q01DX009 (ip), vehicle: saline) is 248 % of control; the T/C (dose: 2.2 mg/kg/injection, schedule: Q04DX003 (ip), vehicle: saline) is 159 % of control and 172 % of control. Besides, the T/C was 154 % of control and 213 % of control (dose: 3.3 mg/kg/injection, schedule: Q04DX003 (ip), vehicle: saline); 182 % of control (dose: 3.75 mg/kg/injection, schedule: Q01DX009 (ip), vehicle: saline); 163 % of control and 209 % of control (dose: 5.0 mg/kg/injection, schedule: Q04DX003 (ip), vehicle: saline); 115 % of control (dose: 7.5 mg/kg/injection, schedule: Q01DX009 (ip), vehicle: saline); 150 % of control and 200 % of control (dose: 7.5 mg/kg/injection, schedule: Q04DX003 (ip), vehicle: saline); 110 % of control (dose: 29.0 micrograms/kg/injection, schedule: Q01DX009 (ip), vehicle: saline). The T/C (dose: 44.0 micrograms/kg/injection, schedule: Q01DX009 (ip), vehicle: saline) is 116 % of control.
For `Cc1nnc2c(=S)[nH]ccn12`, the T/C (dose: 100.0 mg/kg/injection, schedule: Q01DX001 (ip), vehicle: saline with Tween-80) was 113 % of control; the T/C (dose: 200.0 mg/kg/injection, schedule: Q01DX001 (ip), vehicle: saline with Tween-80) was 106 % of control; the T/C (dose: 400.0 mg/kg/injection, schedule: Q01DX001 (ip), vehicle: saline with Tween-80) was 100 % of control.
Turning to `NNc1n[nH]c(=S)n1N`, the T/C reads like this: (dose: 6.25 mg/kg/injection, schedule: Q04DX003 (ip), vehicle: saline with Tween-80) 104 % of control; (dose: 12.5 mg/kg/injection, schedule: Q04DX003 (ip), vehicle: saline with Tween-80) 100 % of control; (dose: 25.0 mg/kg/injection, schedule: Q04DX003 (ip), vehicle: saline with Tween-80) 95 % of control.
Turning to `CC(C)=CC(=O)n1nc2c(c1CC(C)C)C(=O)C(Nc1ccccc1)=CC2=O`, the T/C was 93 % of control under setting [7], 90 % of control under setting [8] and 100 % of control under setting [9].
Regarding `Cc1cc(N(CCCl)CCCl)ccc1C=Nc1ccc(F)cc1`, the T/C was 150 % of control under setting [9] and 179 % of control (dose: 600.0 mg/kg/injection, schedule: Q04DX003 (ip), vehicle: saline with Tween-80).
As to `CN(C)CCC(O)c1c[nH]c2ccccc12` (stereo not given), the T/C by setting is: under setting [10], 99 % of control; under setting [11], 97 % of control; under setting [12], 90 % of control.
With `Cc1ccc(C2NC(=O)c3ccccc3N2)s1` (stereo not given), the T/C under setting [5] was 107 % of control and 113 % of control.
With `Clc1cccc(NC2=NCCN=C(Nc3cccc(Cl)c3)SS2)c1`, the T/C is, setting by setting: under setting [13], 111 % of control; under setting [10], 102 % of control; under setting [11], 111 % of control.
For the compound `CO[C@H](C(=O)[C@@H](O)[C@@H](C)O)[C@@H]1Cc2cc3cc(O)c(C)c(O)c3c(O)c2C(=O)[C@H]1O`, the T/C by setting is: (dose: 0.12 mg/kg/injection, schedule: Q01DX009 (ip), vehicle: water) 114 % of control; (dose: 0.25 mg/kg/injection, schedule: Q01DX009 (ip), vehicle: water) 107 % of control; (dose: 0.5 mg/kg/injection, schedule: Q01DX009 (ip), vehicle: water) 114 % of control; (dose: 1.0 mg/kg/injection, schedule: Q01DX009 (ip), vehicle: water) 99 % of control; (dose: 2.0 mg/kg/injection, schedule: Q01DX009 (ip), vehicle: water) 97 % of control; (dose: 4.0 mg/kg/injection, schedule: Q01DX009 (ip), vehicle: water) 99 % of control.
As to `NC(=S)N=Nc1c(O)[nH]c2ccccc12`, the T/C by setting is: under setting [5], 119 % of control; under setting [6], 118 % of control; (dose: 200.0 mg/kg/injection, schedule: Q01DX009 (ip), vehicle: Klucel (hydroxypropylcellulose) (HPC)) 115 % of control.
Take `CC(N)C(=O)NC(C)C(=O)NC(C)C(=O)NC(C)C(=O)O` (stereo not given) (H-AAAA-OH; configuration not given here): the T/C under setting [1] is 93 % of control, the T/C under setting [2] was 98 % of control and the T/C under setting [3] was 105 % of control.
For the compound `CC(=O)c1ccc(F)c(C)c1`, the T/C (dose: 100.0 mg/kg/injection, schedule: Q01DX001 (ip), vehicle: saline sonified) was 105 % of control; the T/C (dose: 200.0 mg/kg/injection, schedule: Q01DX001 (ip), vehicle: saline sonified) was 110 % of control; the T/C (dose: 400.0 mg/kg/injection, schedule: Q01DX001 (ip), vehicle: saline sonified) was 105 % of control.
On to `COc1cc2c(c(OC)c1OC)-c1cc3c(cc1[C@@H](O)[C@@H]1COC(=O)[C@@H]21)OCO3`, for which the T/C (dose: 6.2 mg/kg/injection, schedule: Q01DX009 (ip), vehicle: saline) is 90 % of control; the T/C (dose: 9.3 mg/kg/injection, schedule: Q01DX009 (ip), vehicle: saline) was 86 % of control; the T/C (dose: 14.0 mg/kg/injection, schedule: Q01DX009 (ip), vehicle: saline) is 109 % of control; the T/C (dose: 21.0 mg/kg/injection, schedule: Q01DX009 (ip), vehicle: saline) is 100 % of control.
As for `CNC(=O)c1n[nH]c(C)c1[N+](=O)[O-]`, the T/C (dose: 25.0 mg/kg/injection, schedule: Q04DX003 (ip), vehicle: water) is 101 % of control; the T/C (dose: 50.0 mg/kg/injection, schedule: Q04DX003 (ip), vehicle: water) was 106 % of control; the T/C (dose: 100.0 mg/kg/injection, schedule: Q04DX003 (ip), vehicle: water) is 114 % of control; the T/C (dose: 200.0 mg/kg/injection, schedule: Q04DX003 (ip), vehicle: water) is 97 % of control; the T/C (dose: 400.0 mg/kg/injection, schedule: Q04DX003 (ip), vehicle: water) is 87 % of control.
As for `Clc1ccc(C(Cl)(Cl)Cl)cc1Cl`, the T/C by setting is: (dose: 12.5 mg/kg/injection, schedule: Q01DX009 (ip), vehicle: Klucel (hydroxypropylcellulose) (HPC)) 95 % of control; under setting [4], 100 % of control; under setting [5], 100 % of control.
For the compound `CS(=O)(=O)OCC(OS(C)(=O)=O)C(COS(C)(=O)=O)OS(C)(=O)=O` (stereo not given), the T/C is 100 % of control under setting [13]; 95 % of control (dose: 50.0 mg/kg/injection, schedule: Q04DX003 (ip), vehicle: saline with Tween-80); 102 % of control under setting [10]; 91 % of control under setting [7]; 93 % of control under setting [11]; 95 % of control under setting [8]. Besides, the T/C runs as follows: under setting [12], 88 % of control; under setting [9], 91 % of control.
